Measurements from US10328130B2, “Modified hyaluronidases and uses in treating hyaluronan-associated diseases and conditions” (Halozyme, Inc., priority 2008, dated 2019).
Like-named read-outs stand apart in the source and are kept apart here.

Legend:
PC-3M-luc-C6 cells = experiment: PC-3M-luc-C6 bone metastasis model: survival and bioluminescent imaging; assay type: in vivo, mouse; settings: for % survival: day 49
Method: Due to the bioluminescence of the PC-3M-luc-C6 cells, in addition to monitoring the survival of the mice, the mice were imaged to visualize the PC-3M-luc-C6 metastases. Briefly, 7-10 week old nu/nu male mice (Charles River Laboratories) were anesthetized and injected with 3×10^6 PC-3M-luc-C6 cells (a bioluminescent human prostate carcinoma cell line) suspended in 50 μL sterile DPBS by intracardial injection on day 0. Mice were injected into the left ventricle of the heart by non-surgical means to increase the potential for metastasis from PC-3M-luc-C6 cells. The intracardiac injection of tumor cells bypasses the lungs and serves as a method to disperse cells into general circulation in order to allow seeding of metastasis in multiple tissues within an animal. A satisfactory injection into the left ventricle was detectable within minutes by bioluminescent imaging (BLI) and was identified by an immediate but transient systemic bioluminescence over the entire animal, as indicated by complete blue signal BLI of mice. An unsuccessful implantation produced a more localized signal generally isolated and sustained over time solely within the thoracic region of the animal. […] Mice with successful intra-cardiac injection of PC-3Mluc-C6 cells on day 0 (n=10−13 mice/Grp) were imaged twice a week for up to four weeks and subsequently followed up for survival till day 49 and beyond that time point.
On day 14, the mice were subjected to one of several treatment regimens. A set of control mice was administered API buffer (10 mM Hepes and 130 mM NaCl, pH 7.0) only on days 14, 16, 18, 21, 23, 25, 28, 30, and 32.
The in vivo bioluminescent signal from the jaw region of mice corresponds to micrometastases in the dental pulp, mandible or cervical lymph nodes. Lower limb in vivo signals corresponded to metastatic lesions identified in the tibia or femur leg bones. The thoracic signals that are observed in vivo are associated with residual tumor cells that had seeded into the heart, lung or the pleural surface of the chest cavity. Mice with images indicating a successful systemic injection on day 0 and showing in vivo evidence of metastasis by day 29 were included in the analysis of the treatment groups.

[1] = test system: PC3 prostate cancer xenograft tumor
Method: Tumor growth was monitored using VisualSonics Imaging Micro-ultrasound system. […] A control group of mice (G2) received 10 mg/kg docetaxel Q7D×2 intravenously on days 0 and 7. Another control group of mice received 30 mg/kg docetaxel Q7D×2 intravenously on days 0 and 7. […] A final control group that received only API buffer also was included in the study (G1). […] The Median Survival Time (MST) (in days) was calculated by median time to 1500 mm^3 tumor volume based on individual animals in each group. The % T/C is calculated by % T/C=(T/C)×100, where T is the median survival time to 1500 mm^3 tumor volume in the treated group and C is the median survival time to 1500 mm^3 tumor volume in the API buffer control group. By National Cancer Institute (NCI) criteria, a product with a % T/C over 125% is considered active. The Increase in Life Span (ILS) is a measure of anti-tumor activity calculated as [(T−C)/C]×100, where (T−C) is the difference in the median day to 1500 mm^3 tumor volume between the treated (T) and control (C) groups.
A control group of mice were intravenously administered 6 mg/kg Doxil® liposomal doxorubicin on days 0, 7 and 14. […] A final control group that received only API buffer also was include in the study.

[2] = PEGylated rHuPH20 10,000 U/mouse and/or Taxotere 10 mg/kg (admixed) IV
[3] = Taxotere 30 mg/kg IV days 14 and 21
[4] = PEGylated rHuPH20 10,000 U/mouse and/or docetaxel 10 mg/kg IV

CC(=O)O[C@@]12CO[C@@H]1C[C@H](O)[C@@]1(C)C(=O)[C@H](O)C3=C(C)[C@@H](OC(=O)[C@H](O)[C@@H](NC(=O)OC(C)(C)C)c4ccccc4)C[C@@](O)([C@@H](OC(=O)c4ccccc4)[C@H]21)C3(C)C [Taxotere ® (docetaxel), docetaxel]
No. of animals alive at day 49 (PC-3M-luc-C6 cells; [2]): 9
surviving animals at day 29 (PC-3M-luc-C6 cells; Taxotere 10 mg/kg or PEGylated rHuPH20 10,000 U/mouse alone): 9 out of 12
No. of animals alive at day 49 (PC-3M-luc-C6 cells; [3]): 10
mice remaining alive at Day 29 (PC-3M-luc-C6 cells; [3]): 10 out of 11
% survival (PC-3M-luc-C6 cells; [2]): 75.00%
% survival (PC-3M-luc-C6 cells; [3]): 90.91%
Average Survival Time (to 1500 mm^3 tumor volume) [1, 4]: 38.96 ± 7.07
MST (Median Survival Time to 1500 mm^3 tumor volume) [1, 4]: 32.9 days
Tumor volume ([1]; day 4, PEGylated rHuPH20 10,000 U/mouse and/or docetaxel 10 mg/kg IV): 687.27 mm3
Tumor volume ([1]; day 4, docetaxel 30 mg/kg IV): 497.04 mm3
Tumor volume ([1]; day 13, PEGylated rHuPH20 10,000 U/mouse and/or docetaxel 10 mg/kg IV): 869.25 mm3
Tumor volume ([1]; day 13, docetaxel 30 mg/kg IV): 401.12 mm3
Tumor volume ([1]; day 21, PEGylated rHuPH20 10,000 U/mouse and/or docetaxel 10 mg/kg IV): 1011.1 mm3
Tumor volume ([1]; day 21, docetaxel 30 mg/kg IV): 409.02 mm3
Tumor volume ([1]; day 27, PEGylated rHuPH20 10,000 U/mouse and/or docetaxel 10 mg/kg IV): 1260.7 mm3
Tumor volume ([1]; day 27, docetaxel 30 mg/kg IV): 291.65 mm3
Tumor volume ([1]; day 35, PEGylated rHuPH20 10,000 U/mouse and/or docetaxel 10 mg/kg IV): 1441.1 mm3
Tumor volume ([1]; day 35, docetaxel 30 mg/kg IV): 213.73 mm3
Tumor volume ([1]; day 42, PEGylated rHuPH20 10,000 U/mouse and/or docetaxel 10 mg/kg IV): 1552.1 mm3
Tumor volume ([1]; day 42, docetaxel 30 mg/kg IV): 147.05 mm3
Tumor volume ([1]; day 50, docetaxel 30 mg/kg IV): 130.2 mm3
Tumor volume ([1]; day 61, docetaxel 30 mg/kg IV): 343.03 mm3
Tumor volume ([1]; day 73, docetaxel 30 mg/kg IV): 865.5 mm3
Tumor volume ([1]; day −1 (before treatment), PEGylated rHuPH20 10,000 U/mouse and/or docetaxel 10 mg/kg IV): 470.39 mm3
Tumor volume ([1]; day −1 (before treatment), docetaxel 30 mg/kg IV): 471.34 mm3
% ILS ([1]; increase in life span vs API buffer control, PEGylated rHuPH20 10,000 U/mouse and/or docetaxel 10 mg/kg): 59%
% T/C ([1]; median survival time vs API buffer control, PEGylated rHuPH20 10,000 U/mouse and/or docetaxel 10 mg/kg): 157%
